Data taken from paper PMC3119473 (PLoS ONE, 2011).
Entries after “also recorded” stand apart in the source; their conditions may differ. One block for each molecule: values may come before it. Square brackets hold non-standard residues; d marks the D form. Ends that are not written are not given here. fluorescein = fluorescein, N-terminal label; Lys(Me3) = C[N+](C)(C)CCCC[C@H](N)C(=O)O; Lys(Me2) = CN(C)CCCC[C@H](N)C(=O)O

Key:
[1] = molecular target: T1, PWWP domain of human HDGF2 (residues 1–93) (Homo sapiens, UniProt Q7Z4V5); test: Fluorescence polarization binding of histone peptides to HDGF2 PWWP domain; conditions: N-terminally fluorescein-labeled peptide 40 nM, PWWP domain titrated, 20 mM PIPES pH 6.5, 50 mM NaCl, 0.01% Tween-20, Very weak = binding too weak to be fitted reliably
T1 construct: HDGF2 (residues 1–93); His-tag (cleaved yes); made in house; host or cells: Escherichia coli BL21 (DE3)-V2R-pRARE2
Experimental: DNA fragment encoding the PWWP domain of human BRPF1 (residues 1085–1213), BRPF2 (residues 925–1049), BRPF3 (residues 1056–1195), HDGF2 (residues 1–93), DNMT3A (residues 278–427), DNMT3B (residues 206–355), MUM1 (residues 406–539) WHSC1 (residues 208–368) and WHSC1L1 (residues 247–402) were amplified by PCR and sub-cloned into pET28-MHL vector (Genbank accession number: EF456735) and transformed into Escherichia coli BL21 (DE3)-V2R-pRARE2. The cells were grown in Terrific Broth and the protein was over-expressed by addition of 1 mM isopropyl-1-thio-D-galactopyranoside (IPTG) and incubated overnight at 15°C. Harvested cells were resuspended in 50 mM HEPES, pH 7.4, supplemented with 500 mM NaCl, 2 mM β-mercaptoethanol, 5% glycerol, 0.1% CHAPS. The cells were lysed by passing through a microfluidizer (Microfluidics Corporation) at 20,000 psi. After clarification of the crude extract by high-speed centrifugation, the lysate was loaded onto a 5 ml HiTrap chelating column (GE Healthcare), charged with Ni^2+. The column was washed with 10 column volumes of 20 mM HEPES buffer, pH 7.4, containing 500 mM NaCl, 50 mM imidazole and 5% glycerol, the protein was eluted with 20 mM HEPES buffer, pH 7.4, 500 mM NaCl, 250 mM imidazole, 5% glycerol. The protein was dialyzed against buffer containing 20 mM HEPES, pH 7.4, 500 mM NaCl and 5% glyceral. TEV protease was added to combined fractions containing target proteins to remove the His-tag. All the proteins except DNMT3A were further purified to homogeneity by ion-exchange chromatography on Source 30S column (10×10) (GE Healthcare), equilibrated with 20 mM PIPES buffer, pH 6.5, and eluted with linear gradient of NaCl up to 500 mM concentration (20CV). For DNMT3A, Source 30Q column was used for ion exchange chromatography. The ^15N-labeled proteins for NMR titration were purified in the same protocols as native ones except that bacteria were grew in M9 minimal medium containing 1 g/L ^15(NH4)2SO4 as the sole nitrogen source. The labeled proteins were concentrated to 0.15–0.3 mM for NMR titration.
Fluorescence polarization assays were performed in 384-well plates, using the Synergy 2 microplate reader from BioTek as described in [43]. All the peptides were synthesized and purified by Tufts University Core Services (Boston, MA, U.S.A.), with the N-terminus labeled with fluorescein. Binding assays were performed in a 10 µl volume at a constant labeled peptide concentration (40 nM), by titrating the PWWP domains (at concentrations ranging from low to high micromolar) into 20 mM PIPES buffer (pH 6.5), containing 50 mM NaCl, 0.01% Tween-20. The data points were fitted to ligand binding function using Sigma Plot software to determine the K d values.

[2] = molecular target: T2, N-terminal PWWP domain of human WHSC1L1 (residues 247–402) (Homo sapiens, UniProt Q9BZ95); test: Fluorescence polarization binding of histone peptides to WHSC1L1 N-terminal PWWP domain; conditions: N-terminal PWWP domain only, N-terminally fluorescein-labeled peptide 40 nM, PWWP domain titrated, 20 mM PIPES pH 6.5, 50 mM NaCl, 0.01% Tween-20, Very weak = binding too weak to be fitted reliably
T2 construct: WHSC1L1 (residues 247–402); His-tag (cleaved yes); made in house; host or cells: Escherichia coli BL21 (DE3)-V2R-pRARE2
T2 sequence (Q9BZ95 247-402): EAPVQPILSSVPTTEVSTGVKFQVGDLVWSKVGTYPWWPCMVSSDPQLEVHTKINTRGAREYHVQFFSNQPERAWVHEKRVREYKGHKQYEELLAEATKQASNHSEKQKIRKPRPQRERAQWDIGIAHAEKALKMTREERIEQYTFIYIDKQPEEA
Experimental: (§1) DNA fragment encoding the PWWP domain of human BRPF1 (residues 1085–1213), BRPF2 (residues 925–1049), BRPF3 (residues 1056–1195), HDGF2 (residues 1–93), DNMT3A (residues 278–427), DNMT3B (residues 206–355), MUM1 (residues 406–539) WHSC1 (residues 208–368) and WHSC1L1 (residues 247–402) were amplified by PCR and sub-cloned into pET28-MHL vector (Genbank accession number: EF456735) and transformed into Escherichia coli BL21 (DE3)-V2R-pRARE2. The cells were grown in Terrific Broth and the protein was over-expressed by addition of 1 mM isopropyl-1-thio-D-galactopyranoside (IPTG) and incubated overnight at 15°C. Harvested cells were resuspended in 50 mM HEPES, pH 7.4, supplemented with 500 mM NaCl, 2 mM β-mercaptoethanol, 5% glycerol, 0.1% CHAPS. The cells were lysed by passing through a microfluidizer (Microfluidics Corporation) at 20,000 psi. After clarification of the crude extract by high-speed centrifugation, the lysate was loaded onto a 5 ml HiTrap chelating column (GE Healthcare), charged with Ni^2+. The column was washed with 10 column volumes of 20 mM HEPES buffer, pH 7.4, containing 500 mM NaCl, 50 mM imidazole and 5% glycerol, the protein was eluted with 20 mM HEPES buffer, pH 7.4, 500 mM NaCl, 250 mM imidazole, 5% glycerol. […]
Fluorescence polarization assays were performed in 384-well plates, using the Synergy 2 microplate reader from BioTek as described in [43]. […]

[3] = molecular target: T3, PWWP domain of human BRPF1 (residues 1085–1213) (Homo sapiens, UniProt P55201); test: Fluorescence polarization binding of histone peptides to BRPF1 PWWP domain; conditions: N-terminally fluorescein-labeled peptide 40 nM, PWWP domain titrated, 20 mM PIPES pH 6.5, 50 mM NaCl, 0.01% Tween-20, Very weak = binding too weak to be fitted reliably
T3 construct: PWWP domain of human BRPF1 (residues 1085–1213); His-tag (cleaved yes); made in house; host or cells: Escherichia coli BL21 (DE3)-V2R-pRARE2
T3 sequence (P55201 1085-1213): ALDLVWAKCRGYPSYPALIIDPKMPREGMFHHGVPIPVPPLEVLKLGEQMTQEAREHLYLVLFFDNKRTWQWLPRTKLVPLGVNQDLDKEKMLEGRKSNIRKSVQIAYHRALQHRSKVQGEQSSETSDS
Experimental: as §1, with “glycerol. The protein was dialyzed against buffer containing 20 mM HEPES, pH 7.4, 500 mM NaCl and 5% glyceral.” for “glycerol.”

[4] = molecular target: T4, PWWP domain of human BRPF2 (residues 925–1049) (Homo sapiens, UniProt O95696); test: Fluorescence polarization binding of histone peptides to BRPF2 PWWP domain; conditions: N-terminally fluorescein-labeled peptide 40 nM, PWWP domain titrated, 20 mM PIPES pH 6.5, 50 mM NaCl, 0.01% Tween-20, Very weak = binding too weak to be fitted reliably
T4 construct: BRPF2 (residues 925–1049); His-tag (cleaved yes); made in house; host or cells: Escherichia coli BL21 (DE3)-V2R-pRARE2
T4 sequence (O95696 925-1049): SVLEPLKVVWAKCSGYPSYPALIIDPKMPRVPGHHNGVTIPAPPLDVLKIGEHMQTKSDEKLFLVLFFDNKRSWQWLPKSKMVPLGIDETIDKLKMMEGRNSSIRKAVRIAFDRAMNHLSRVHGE
Experimental: as §1, with “glycerol. The protein was dialyzed against buffer containing 20 mM HEPES, pH 7.4, 500 mM NaCl and 5% glyceral.” for “glycerol.”

[5] = molecular target: T5, PWWP domain of human MUM1 (melanoma associated antigen (mutated) 1), residues 406-539 (human, UniProt Q2TAK8 406-539); test: fluorescence polarisation; 384-well plates, 10 µl; N-terminal fluorescein peptide constant at 40 nM, PWWP domain titrated (low to high micromolar); 20 mM PIPES pH 6.5, 50 mM NaCl, 0.01% Tween-20; conditions: both partners purified
T5 construct: PWWP domain of human MUM1, residues 406-539; Cloned into pET28-MHL (vector GenBank EF456735); source: E. coli BL21 (DE3)-V2R-pRARE2, purified (Ni2+ chelating column, TEV cleavage, Source 30S ion exchange)

[6] = molecular target: T6, PWWP domain of human HDGF2 (Hepatoma-derived growth factor 2), residues 1-93 (human, UniProt Q7Z4V5 1-93); test: as above; conditions: both partners purified
T6 construct: PWWP domain of human HDGF2, residues 1-93; Cloned into pET28-MHL (vector GenBank EF456735); also called HGDF2; source: E. coli BL21 (DE3)-V2R-pRARE2, purified (Ni2+ chelating column, TEV cleavage, Source 30S ion exchange)
T6 sequence (Q7Z4V5 1-93): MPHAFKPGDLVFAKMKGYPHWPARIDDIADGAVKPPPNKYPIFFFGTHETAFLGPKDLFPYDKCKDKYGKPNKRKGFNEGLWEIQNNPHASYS

T1 sequence (Q7Z4V5 1-93): as above
T5 sequence (Q2TAK8 406-539, stated change not applied): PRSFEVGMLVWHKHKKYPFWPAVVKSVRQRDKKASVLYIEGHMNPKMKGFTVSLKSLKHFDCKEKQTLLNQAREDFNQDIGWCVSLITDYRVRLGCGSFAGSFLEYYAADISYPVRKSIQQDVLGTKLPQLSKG

HDGF2 Kd(mM) [1]: weakly; also recorded: Very weak
WHSC1L1_N Kd (mM) [2]: Very weak
Molecule: CC(C)[C@H](NC(=O)CNC(=O)CNC(=O)[C@@H](NC(=O)[C@H](C)NC(=O)[C@@H]1CCCN1)[C@@H](C)O)C(=O)N[C@@H](CCCC[N+](C)(C)C)C(=O)N[C@@H](CCCCN)C(=O)N1CCC[C@H]1C(=O)N[C@@H](Cc1c[nH]cn1)C(=O)N[C@@H](CCCNC(=N)N)C(=O)N[C@@H](Cc1ccc(O)cc1)C(=O)O [Peptide H3K36me3]

BRPF1 Kd(mM) [3]: Very weak
HDGF2 Kd(mM) [1]: weakly; also recorded: Very weak
Molecule: AKRHRK(me)3VLRDN [Peptide H4K20me3, histone H4 peptide trimethylated at K20; N-terminus fluorescein-labeled in FP assay]

BRPF1 Kd(mM) [3]: Very weak
HDGF2 Kd(mM) [1]: Very weak
Molecule: AKRHRK(me)2VLRDN [Peptide H4K20me2, histone H4 peptide dimethylated at K20; N-terminus fluorescein-labeled in FP assay]

Molecule: CC(C)[C@H](NC(=O)CNC(=O)CNC(=O)[C@@H](NC(=O)[C@H](C)NC(=O)[C@@H]1CCCN1)[C@@H](C)O)C(=O)N[C@@H](CCCCN(C)C)C(=O)N[C@@H](CCCCN)C(=O)N1CCC[C@H]1C(=O)N[C@@H](Cc1c[nH]cn1)C(=O)N[C@@H](CCCNC(=N)N)C(=O)N[C@@H](Cc1ccc(O)cc1)C(=O)O [Peptide H3K36me2]
BRPF2 Kd(mM) [4]: Very weak
WHSC1L1_N Kd (mM) [2]: Very weak

HDGF2 Kd(mM) [1]: Very weak
Molecule: CC[C@H](C)[C@H](NC(=O)[C@@H](N)CCC(=O)O)C(=O)N[C@@H](C)C(=O)N[C@@H](CCC(N)=O)C(=O)N[C@@H](CC(=O)O)C(=O)N[C@@H](Cc1ccccc1)C(=O)N[C@@H](CCCCN(C)C)C(=O)N[C@H](C(=O)N[C@@H](CC(=O)O)C(=O)N[C@@H](CC(C)C)C(=O)N[C@@H](CCCNC(=N)N)C(=O)N[C@@H](Cc1ccc(O)cc1)C(=O)O)[C@@H](C)O [Peptide H3K79me2]

Molecule: CC[C@H](C)[C@H](NC(=O)[C@@H](N)CCC(=O)O)C(=O)N[C@@H](C)C(=O)N[C@@H](CCC(N)=O)C(=O)N[C@@H](CC(=O)O)C(=O)N[C@@H](Cc1ccccc1)C(=O)N[C@@H](CCCC[N+](C)(C)C)C(=O)N[C@H](C(=O)N[C@@H](CC(=O)O)C(=O)N[C@@H](CC(C)C)C(=O)N[C@@H](CCCNC(=N)N)C(=O)N[C@@H](Cc1ccc(O)cc1)C(=O)O)[C@@H](C)O [Peptide H3K79me3]
HDGF2 Kd(mM) [1]: weakly; also recorded: very weak binding affinity

Kd [5]: 100 ± 70 µM
B1: H3K36me3 peptide PATGGVK(me)3KPHRY, N-terminal fluorescein (peptide)
peptide: fluorescein-PATGGV[Lys(Me3)]KPHRY
notes: histone H3, stretch around K36; source: synthetic peptide (Tufts University Core Services)

Kd [6]: 1000 ± 200 µM
Kd [5]: 400 ± 100 µM
B2: H3K36me2 peptide PATGGVK(me)2KPHRY, N-terminal fluorescein (peptide)
peptide: fluorescein-PATGGV[Lys(Me2)]KPHRY
notes: as for B1
